Reference: ChEMBL document CHEMBL1201862, “PubChem BioAssay data set” (2004)
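Tested at 5 concentrations; 48 h exposure; 96-well plates; endpoints linearly interpolated, else capped at highest concentration. Here, GI50 denotes the concentration required for 50% inhibition of growth.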 Activity calls are given as the source filed them. No stated cut-off is given here; in the data, active = GI50 up to about 1.1 µM and inactive = higher. Where a SMILES comes first, the peptide text is derived from it. [ ]: non-standard residue; d: D form. Phe(4-NO2) = N[CH](Cc1ccc([N+](=O)[O-])cc1)C(=O)O

Legend:
Experiment in all cases: growth of human tumour cells (NCI), 48 h
786-0 = test system: 786-0
CAKI-1 = test system: CAKI-1
CCRF-CEM = test system: CCRF-CEM
HCT-15 = test system: HCT-15
HOP-62 = test system: HOP-62
Hs-578T = test system: Hs-578T
KM12 = test system: KM12
MDA-MB-231 = test system: MDA-MB-231
MDA-MB-435 = test system: MDA-MB-435
NCI/ADR-RES = test system: NCI/ADR-RES
OVCAR-5 = test system: OVCAR-5
SF-268 = test system: SF-268
SF-295 = test system: SF-295
SK-MEL-5 = test system: SK-MEL-5
T47D = test system: T47D
TK-10 = test system: TK-10
UACC-257 = test system: UACC-257
MDA-N = test system: MDA-N

SMILES	GI50 (786-0)	GI50 (CAKI-1)	GI50 (CCRF-CEM)	GI50 (HCT-15) [µM]	GI50 (HOP-62)	GI50 (Hs-578T)	GI50 (KM12)	GI50 (MDA-MB-231)	GI50 (MDA-MB-435)	GI50 (NCI/ADR-RES)	GI50 (OVCAR-5)	GI50 (SF-268)	GI50 (SF-295)	GI50 (SK-MEL-5)	GI50 (T47D)	GI50 (TK-10)	GI50 (UACC-257)	GI50 (MDA-N)
CN(C)CCn1c2c(c3ccccc31)CCc1ccccc1-2	14.8 µM (inactive)	14.9 µM (inactive)	18.7 µM (inactive)	10.7	15.7 µM (inactive)	15.1 µM (inactive)	13.4 µM (inactive)	13.9 µM (inactive)	17.4 µM (inactive)	15.6 µM (inactive)	17.9 µM (inactive)	17.9 µM (inactive)	16.9 µM (inactive)	6.1 µM (inactive)	15.8 µM (inactive)	16.7 µM (inactive)	14.6 µM (inactive)	
CC(=O)OCc1cc(OC(C)=O)c2cc3c(OC(C)=O)cccc3c(OC(C)=O)c2c1	13 µM (inactive)		> 10 µM (inactive)	5.61	16.9 µM (inactive)			17.1 µM (inactive)	17.7 µM (inactive)	17.2 µM (inactive)	18.8 µM (inactive)	21.2 µM (inactive)	13.6 µM (inactive)	11.2 µM (inactive)	21.7 µM (inactive)	12.7 µM (inactive)	22 µM (inactive)	17.1 µM (inactive)
COC(=O)CCC(NC(=O)C(CCC(=O)OC)NC(=O)C(CCC(=O)OC)NC(=O)C(CCC(=O)OC)NC(=O)C(CCC(=O)OC)NC(=O)C(Cc1ccc([N+](=O)[O-])cc1)NC(=O)C(CCC(=O)OC)NC(=O)C(CCC(=O)OC)NC(=O)C(CCC(=O)OC)NC(=O)C(CCC(=O)OC)NC(=O)C(CCC(=O)OC)NC(C)=O)C(N)=O (configuration not stated) (Ac-E(OMe)E(OMe)E(OMe)E(OMe)E(OMe)[Phe(4-NO2)]E(OMe)E(OMe)E(OMe)E(OMe)E(OMe)-NH2; configuration not given here)	> 100 µM (inactive)	> 100 µM (inactive)	> 100 µM (inactive)	> 10		20 µM (inactive)	> 100 µM (inactive)	48.1 µM (inactive)	> 100 µM (inactive)	> 100 µM (inactive)	> 100 µM (inactive)	> 100 µM (inactive)	31.4 µM (inactive)	26.1 µM (inactive)		> 100 µM (inactive)	> 100 µM (inactive)	> 100 µM (inactive)
O=C(O)CNC(=O)c1c2ccccc2nc2ccccc12	> 100 µM (inactive)	> 100 µM (inactive)	> 100 µM (inactive)	> 100	> 100 µM (inactive)		> 100 µM (inactive)	> 100 µM (inactive)	> 100 µM (inactive)	> 100 µM (inactive)	> 100 µM (inactive)	> 100 µM (inactive)	> 100 µM (inactive)	> 100 µM (inactive)		> 100 µM (inactive)	> 100 µM (inactive)	
CCCCOC(=O)NC(Nc1ccc(S(=O)(=O)Nc2ccc(OC)nn2)cc1)(C(F)(F)F)C(F)(F)F	> 100 µM (inactive)	> 100 µM (inactive)	> 100 µM (inactive)	> 100	> 100 µM (inactive)		> 100 µM (inactive)	> 100 µM (inactive)	> 100 µM (inactive)	> 100 µM (inactive)	> 100 µM (inactive)	> 100 µM (inactive)	> 100 µM (inactive)	> 100 µM (inactive)	> 100 µM (inactive)	> 100 µM (inactive)	> 100 µM (inactive)	> 100 µM (inactive)
CN1c2ccccc2C(=O)NC12CCN(CC1COc3ccccc3O1)CC2 (configuration not stated)	69.7 µM (inactive)		36.1 µM (inactive)		49.8 µM (inactive)	32.7 µM (inactive)	32.6 µM (inactive)		33.4 µM (inactive)	31.6 µM (inactive)	48.6 µM (inactive)	> 100 µM (inactive)	57.7 µM (inactive)	16.2 µM (inactive)	21.2 µM (inactive)	44.8 µM (inactive)	22 µM (inactive)	
CN(N=O)C(=O)Nc1c[nH]c(=O)[nH]c1=O	> 100 µM (inactive)	> 100 µM (inactive)	> 100 µM (inactive)	> 100	> 100 µM (inactive)		> 100 µM (inactive)	> 100 µM (inactive)	> 100 µM (inactive)	> 100 µM (inactive)	> 100 µM (inactive)		> 100 µM (inactive)	> 100 µM (inactive)	> 100 µM (inactive)	> 100 µM (inactive)	> 100 µM (inactive)	> 100 µM (inactive)
COc1ccc(/N=N/C(=O)NC(Cc2ccccc2)C(=O)O)cc1 (configuration not stated)	> 100 µM (inactive)	> 100 µM (inactive)	> 100 µM (inactive)	> 100	> 100 µM (inactive)	> 100 µM (inactive)	> 100 µM (inactive)		> 100 µM (inactive)	> 100 µM (inactive)	> 100 µM (inactive)	> 100 µM (inactive)	> 100 µM (inactive)	> 100 µM (inactive)	> 100 µM (inactive)	> 100 µM (inactive)	> 100 µM (inactive)	> 100 µM (inactive)
